Data published in the supplement of paper PMC12463676, “Small-molecule dissolution of stress granules by redox modulation benefits ALS models” (Nature Chemical Biology, 2025).

Tests used:
[1] = compound: NC(=O)CCCCC1CCSS1 [lipoamide]; test: thermal stability z-score vs DMSO; higher = more thermally stabilized by treatment; conditions: HeLa, lipoamide concentration 100 µM
Procedure: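 Cellular thermal proteome profiling in HeLa cells. Cells were treated with 100 µM lipoamide for 1 h, with or without 1 mM arsenate for a further 1 h, then heated to ten temperatures (37-66.3 °C), and soluble protein was quantified by TMT mass spectrometry relative to 0.1% DMSO controls. The thermal stability score (sum of log2 fold changes minus the abundance score) was transformed to a z-score; mean of n = 3 experiments.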

[2] = compound: O=[As]([O-])(O)O.[K+] [potassium arsenate]; test: as above; conditions: HeLa; arsenate concentration 1 mM
Procedure: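 Cellular thermal proteome profiling in HeLa cells treated with 1 mM arsenate for 1 h (DMSO pretreatment), heated to ten temperatures (37-66.3 °C). Soluble protein was quantified by TMT mass spectrometry relative to DMSO controls; the thermal stability score was transformed to a z-score; mean of n = 3 experiments.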

[3] = arsenate co-treatment: 1 mM arsenate 1 h
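Also: each temperature applied for 3 min, abundance score taken as mean log2 fold change at the two lowest temperatures, z-score obtained by mean subtraction and division by SD.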

UniProt Q8WVY7, sequence (Q8WVY7 whole entry): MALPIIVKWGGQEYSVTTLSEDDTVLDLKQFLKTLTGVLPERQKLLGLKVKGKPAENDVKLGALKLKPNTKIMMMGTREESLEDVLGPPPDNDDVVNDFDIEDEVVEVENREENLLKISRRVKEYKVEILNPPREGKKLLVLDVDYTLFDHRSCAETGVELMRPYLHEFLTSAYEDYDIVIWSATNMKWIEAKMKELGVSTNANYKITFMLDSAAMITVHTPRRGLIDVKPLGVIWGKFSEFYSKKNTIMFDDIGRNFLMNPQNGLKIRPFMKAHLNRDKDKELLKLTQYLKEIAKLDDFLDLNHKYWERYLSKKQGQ
UniProt Q8WU76, sequence (Q8WU76 whole entry): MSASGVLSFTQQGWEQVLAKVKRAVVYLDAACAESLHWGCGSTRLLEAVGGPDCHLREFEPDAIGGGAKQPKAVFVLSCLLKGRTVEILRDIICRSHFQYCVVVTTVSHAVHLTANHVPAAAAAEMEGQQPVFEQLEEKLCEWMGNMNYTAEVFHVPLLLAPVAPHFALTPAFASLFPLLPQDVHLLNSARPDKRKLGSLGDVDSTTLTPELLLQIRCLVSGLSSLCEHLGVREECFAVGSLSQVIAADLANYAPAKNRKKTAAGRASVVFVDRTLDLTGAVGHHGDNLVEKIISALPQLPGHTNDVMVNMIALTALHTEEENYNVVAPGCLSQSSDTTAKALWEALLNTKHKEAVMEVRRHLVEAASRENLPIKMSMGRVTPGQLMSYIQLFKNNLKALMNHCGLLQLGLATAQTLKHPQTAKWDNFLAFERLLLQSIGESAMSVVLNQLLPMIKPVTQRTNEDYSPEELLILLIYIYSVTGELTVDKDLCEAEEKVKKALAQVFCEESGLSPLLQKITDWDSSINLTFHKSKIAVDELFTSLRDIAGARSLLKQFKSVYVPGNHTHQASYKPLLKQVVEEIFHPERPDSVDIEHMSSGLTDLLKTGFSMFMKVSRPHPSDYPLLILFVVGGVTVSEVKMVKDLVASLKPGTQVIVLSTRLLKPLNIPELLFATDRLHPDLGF
UniProt Q9Y3C1, sequence (Q9Y3C1 whole entry): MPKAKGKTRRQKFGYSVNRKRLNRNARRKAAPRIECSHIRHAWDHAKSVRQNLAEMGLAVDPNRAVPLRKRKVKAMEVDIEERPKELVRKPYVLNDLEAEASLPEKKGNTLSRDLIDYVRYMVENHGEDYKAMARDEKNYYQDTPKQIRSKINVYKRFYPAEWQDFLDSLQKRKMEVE
UniProt Q9NP77, sequence (Q9NP77 whole entry): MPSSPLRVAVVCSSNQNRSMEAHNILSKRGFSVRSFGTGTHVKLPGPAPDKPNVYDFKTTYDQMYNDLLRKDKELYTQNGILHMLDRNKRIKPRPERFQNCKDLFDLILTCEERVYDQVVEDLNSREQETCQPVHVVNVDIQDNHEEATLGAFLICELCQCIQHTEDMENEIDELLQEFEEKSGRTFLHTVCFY
UniProt P40222, sequence (P40222 whole entry): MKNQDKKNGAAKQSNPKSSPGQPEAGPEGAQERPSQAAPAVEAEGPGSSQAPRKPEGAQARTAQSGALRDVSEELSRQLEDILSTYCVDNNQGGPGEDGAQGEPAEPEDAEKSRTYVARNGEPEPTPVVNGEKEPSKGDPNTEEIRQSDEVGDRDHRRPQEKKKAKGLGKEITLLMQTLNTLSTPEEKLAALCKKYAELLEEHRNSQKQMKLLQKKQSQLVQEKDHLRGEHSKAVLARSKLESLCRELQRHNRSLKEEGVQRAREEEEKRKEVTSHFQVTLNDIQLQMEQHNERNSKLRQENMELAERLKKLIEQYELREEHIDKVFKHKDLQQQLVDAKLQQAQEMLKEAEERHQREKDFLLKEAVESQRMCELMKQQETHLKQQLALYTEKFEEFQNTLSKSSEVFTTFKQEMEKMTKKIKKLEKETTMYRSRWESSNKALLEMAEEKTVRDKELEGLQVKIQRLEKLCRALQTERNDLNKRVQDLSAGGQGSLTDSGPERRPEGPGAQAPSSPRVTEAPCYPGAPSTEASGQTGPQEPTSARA
UniProt Q99460, sequence (Q99460 whole entry): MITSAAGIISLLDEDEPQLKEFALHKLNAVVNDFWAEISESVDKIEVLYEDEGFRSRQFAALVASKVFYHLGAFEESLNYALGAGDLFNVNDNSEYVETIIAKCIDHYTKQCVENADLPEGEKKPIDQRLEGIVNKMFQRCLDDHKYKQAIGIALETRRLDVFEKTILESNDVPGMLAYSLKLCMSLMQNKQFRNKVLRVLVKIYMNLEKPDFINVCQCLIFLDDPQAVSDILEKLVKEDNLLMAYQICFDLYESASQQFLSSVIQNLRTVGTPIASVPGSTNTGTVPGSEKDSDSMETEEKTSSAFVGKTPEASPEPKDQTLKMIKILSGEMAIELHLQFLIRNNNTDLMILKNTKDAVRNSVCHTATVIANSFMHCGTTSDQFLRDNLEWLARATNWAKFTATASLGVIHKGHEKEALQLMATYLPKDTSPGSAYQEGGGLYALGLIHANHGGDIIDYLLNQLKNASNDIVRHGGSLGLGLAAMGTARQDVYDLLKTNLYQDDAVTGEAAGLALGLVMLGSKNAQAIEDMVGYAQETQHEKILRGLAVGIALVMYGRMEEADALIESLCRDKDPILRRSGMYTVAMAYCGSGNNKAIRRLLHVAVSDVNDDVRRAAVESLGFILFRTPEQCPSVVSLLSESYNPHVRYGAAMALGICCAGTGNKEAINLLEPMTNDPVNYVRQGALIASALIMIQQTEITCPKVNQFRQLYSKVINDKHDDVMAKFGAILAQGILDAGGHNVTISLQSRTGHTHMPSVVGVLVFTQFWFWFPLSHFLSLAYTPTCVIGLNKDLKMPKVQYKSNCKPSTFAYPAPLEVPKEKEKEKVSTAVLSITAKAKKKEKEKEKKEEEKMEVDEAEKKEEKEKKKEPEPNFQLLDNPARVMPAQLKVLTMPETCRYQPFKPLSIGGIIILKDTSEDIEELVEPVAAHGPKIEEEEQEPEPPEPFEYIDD
UniProt O00746, sequence (O00746 whole entry): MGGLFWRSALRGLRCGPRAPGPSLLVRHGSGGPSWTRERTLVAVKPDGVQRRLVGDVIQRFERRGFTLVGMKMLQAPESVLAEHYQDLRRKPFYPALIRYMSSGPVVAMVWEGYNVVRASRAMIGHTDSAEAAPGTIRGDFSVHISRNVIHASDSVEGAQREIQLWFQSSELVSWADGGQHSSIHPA
UniProt P20851, sequence (P20851 whole entry): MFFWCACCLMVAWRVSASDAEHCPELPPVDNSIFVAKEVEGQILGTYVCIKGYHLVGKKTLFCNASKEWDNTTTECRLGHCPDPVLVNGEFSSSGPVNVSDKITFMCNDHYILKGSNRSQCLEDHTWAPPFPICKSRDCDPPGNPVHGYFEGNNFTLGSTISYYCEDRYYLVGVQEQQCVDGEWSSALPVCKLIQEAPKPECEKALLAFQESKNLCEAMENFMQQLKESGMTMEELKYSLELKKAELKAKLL
UniProt Q96HA7, sequence (Q96HA7 whole entry): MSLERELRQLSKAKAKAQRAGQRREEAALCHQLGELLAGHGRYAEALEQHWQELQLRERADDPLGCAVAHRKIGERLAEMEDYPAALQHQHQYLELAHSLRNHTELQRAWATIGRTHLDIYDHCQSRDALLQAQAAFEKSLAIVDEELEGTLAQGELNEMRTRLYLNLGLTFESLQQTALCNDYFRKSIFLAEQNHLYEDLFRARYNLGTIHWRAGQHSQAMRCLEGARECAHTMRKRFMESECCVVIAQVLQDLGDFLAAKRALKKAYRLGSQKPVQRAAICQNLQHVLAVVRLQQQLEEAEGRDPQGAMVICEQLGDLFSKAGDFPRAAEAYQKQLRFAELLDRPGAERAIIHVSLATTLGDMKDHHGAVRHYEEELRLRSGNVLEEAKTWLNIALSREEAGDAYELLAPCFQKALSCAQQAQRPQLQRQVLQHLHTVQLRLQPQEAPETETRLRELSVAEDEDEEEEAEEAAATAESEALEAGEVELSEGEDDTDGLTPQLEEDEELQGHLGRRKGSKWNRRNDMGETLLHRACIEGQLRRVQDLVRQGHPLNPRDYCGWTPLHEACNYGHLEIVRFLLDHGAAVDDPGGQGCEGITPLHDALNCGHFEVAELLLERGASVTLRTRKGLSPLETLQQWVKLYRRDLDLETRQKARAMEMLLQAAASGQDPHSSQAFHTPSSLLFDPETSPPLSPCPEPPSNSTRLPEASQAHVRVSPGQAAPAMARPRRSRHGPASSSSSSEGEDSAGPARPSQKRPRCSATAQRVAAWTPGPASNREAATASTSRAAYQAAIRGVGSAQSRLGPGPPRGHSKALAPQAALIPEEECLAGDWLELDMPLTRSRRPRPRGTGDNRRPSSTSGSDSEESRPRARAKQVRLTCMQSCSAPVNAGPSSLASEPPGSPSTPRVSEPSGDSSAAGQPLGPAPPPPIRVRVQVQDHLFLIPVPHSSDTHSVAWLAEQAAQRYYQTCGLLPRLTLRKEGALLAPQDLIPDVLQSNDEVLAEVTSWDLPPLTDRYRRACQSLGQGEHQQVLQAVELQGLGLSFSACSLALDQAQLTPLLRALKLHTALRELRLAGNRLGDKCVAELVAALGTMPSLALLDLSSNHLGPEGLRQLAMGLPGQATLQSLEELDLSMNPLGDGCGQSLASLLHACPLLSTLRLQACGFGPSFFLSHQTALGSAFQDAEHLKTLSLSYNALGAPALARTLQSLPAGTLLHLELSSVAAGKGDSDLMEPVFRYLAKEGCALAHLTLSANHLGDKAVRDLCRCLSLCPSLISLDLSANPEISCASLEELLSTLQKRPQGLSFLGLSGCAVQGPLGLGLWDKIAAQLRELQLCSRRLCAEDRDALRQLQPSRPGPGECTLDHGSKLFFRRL
UniProt Q15369, sequence (Q15369 whole entry): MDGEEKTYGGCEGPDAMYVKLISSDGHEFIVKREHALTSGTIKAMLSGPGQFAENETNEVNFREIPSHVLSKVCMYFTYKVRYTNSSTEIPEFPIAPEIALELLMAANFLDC
UniProt P26447, sequence (P26447 whole entry, looked up): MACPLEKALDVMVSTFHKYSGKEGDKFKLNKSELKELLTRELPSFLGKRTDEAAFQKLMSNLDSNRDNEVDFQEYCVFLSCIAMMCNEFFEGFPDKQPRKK

Target | thermal stability z-score [1, 3] | thermal stability z-score ([1]; arsenate co-treatment: none) | thermal stability z-score [2]
DARS (UniProt P14868) | 0.186 | -0.0144 | -0.593
GOLGA4 (UniProt Q13439) | -0.45 | 0.00058 | 0.774
PCNP (UniProt Q8WW12) | 0.549 | 0.442 | 0.289
NFIB (UniProt O00712) | -1.17 | -0.437 | -0.0229
ATP6V1B2 (UniProt P21281) | -0.0948 | -0.684 | -0.745
QSOX2 (UniProt Q6ZRP7) | 0.352 | 1.15 | 0.165
ABCB10 (UniProt Q9NRK6) | 0.329 | 0.173 | -0.034
PTPRM (UniProt P28827) | 0.782 | 1.16 | 0.672
MMAA (UniProt Q8IVH4) | 0.33 | -0.0208 | -1.04
TMEM237 (UniProt Q96Q45) | 0.0486 | 0.457 | -1.23
C11ORF73 (UniProt Q53FT3) | 0.0228 | 0.0059 | -0.162
NOP16 (UniProt Q9Y3C1) | -0.153 | -0.677 | -1.68
LBR (UniProt Q14739) | -0.0763 | -0.097 | 0.0853
UBLCP1 (UniProt Q8WVY7) | 0.309 | -0.101 | 0.8
TXLNA (UniProt P40222) | 0.459 | 0.0728 | 2.4
C4BPB (UniProt P20851) | -5.06 | -5.39 | 0.18
S100A4 (UniProt P26447) | -0.414 | -0.145 | -1.43
SCFD2 (UniProt Q8WU76) | 0.0156 | -0.09 | 0.043
KIF14 (UniProt Q15058) | 0.0801 | 0.0434 | -0.00998
PTBP3 (UniProt O95758) | -0.713 | 0.0298 | -0.772
SSU72 (UniProt Q9NP77) | -0.256 | -0.465 | -0.473
LAMB2 (UniProt P55268) | -1.69 | -1.75 | -0.248
PSMD1 (UniProt Q99460) | 0.651 | 0.343 | 0.245
GKAP1 (UniProt Q5VSY0) | 0.161 | 0.36 | -0.0462
CCDC43 (UniProt Q96MW1) | 0.776 | 0.412 | 0.864
RPS18 (UniProt P62269) | 0.389 | 0.214 | -0.81
KIF20A (UniProt O95235) | 0.142 | 0.152 | -0.154
NME4 (UniProt O00746) | -1.03 | -1.25 | -1.86

Target | thermal stability z-score [1, 3] | thermal stability z-score ([1]; arsenate co-treatment: none) | thermal stability z-score [2]
COBLL1 (UniProt Q53SF7) | 0.248 | 0.43 | -0.608
METTL2A (UniProt Q96IZ6) | 0.394 | 0.528 | -0.0971
TCEB1 (UniProt Q15369) | -0.0847 | -0.122 | -0.0354
RAD1 (UniProt O60671) | 1.26 | 0.445 | 1.31
STAMBPL1 (UniProt Q96FJ0) | 0.417 | 0.511 | 1.05
TAB1 (UniProt Q15750) | -0.188 | -0.291 | -0.294
MTMR2 (UniProt Q13614) | 0.88 | -0.108 | -0.555
DIDO1 (UniProt Q9BTC0) | 0.835 | 0.516 | -1.37
RAB31 (UniProt Q13636) | 0.762 | 0.822 | 0.42
BPNT1 (UniProt O95861) | -0.0659 | -0.197 | -1.66
RABAC1 (UniProt Q9UI14) | 0.138 | -0.0907 | -0.431
TONSL (UniProt Q96HA7) | -0.0593 | 0.0162 | -0.339
MRPL53 (UniProt Q96EL3) | 0.75 | -0.432 | 0.0397
CUL5 (UniProt Q93034) | 0.631 | 0.636 | 0.131
NKRF (UniProt O15226) | -0.0267 | 0.00359 | -0.311
ERCC2 (UniProt P18074) | 0.408 | 0.701 | 0.0533
FAM136A (UniProt Q96C01) | 1.12 | 0.665 | -1.98
BST2 (UniProt Q10589) | 0.265 | 0.606 | 0.172
RALGPS2 (UniProt Q86X27) | -0.0453 | 0.191 | -0.177
UBA2 (UniProt Q9UBT2) | -0.378 | -0.166 | -0.426
BLOC1S5 (UniProt Q8TDH9) | 0.19 | 0.0962 | 0.446
CCT5 (UniProt P48643) | -0.0313 | -0.053 | 0.118
PHF3 (UniProt Q92576) | 1.05 | 0.76 | -0.848
RANBP9 (UniProt Q96S59) | -0.364 | -0.234 | -0.508
TXNRD1 (UniProt Q16881) | 1.24 | 1.25 | 4.21
TDP2 (UniProt O95551) | 0.0323 | -0.0541 | 0.242
CLTB (UniProt P09497) | 1.48 | 1.89 | 0.557
